Reference: patent US8962263B2, “Methods and compositions for detecting the activation state of multiple proteins in single cells” (The Board of Trustees of the Leland Stanford Junior …, priority 2001, dated 2015)

Assays:
p44/42 MAPK = experiment: intracellular phospho-p44/42 MAPK by flow cytometry in ICAM-2 treated Jurkat cells; type: cell-based, human; conditions: chemical agents 10 μM, EDTA 1 mM; mAbs titrated prior to ICAM-2
Text: A) Mean fluorescent intensity values (MFI) of ICAM-2-FITC (adhesion) and mAb24-Alexa633, (LFA-1, activation) in treated Jurkat cells (as above). Control unstimulated and/or compound pretreated values were subtracted. B) Top panel: Intracellular phospho-p44/42, MAPK detection as a function of ICAM-2, dose in Jurkat cells by flow cytometry (see Material and Methods). Mean fluorescent intensity values (MFI) were plotted±standard deviation (SD). Bottom panel: ICAM-2, treated Jurkat cells were stained for intracellular phospho-p44/42, MAPK as described above. mAbs to β2, and αL, integrins (10, μg/ml, 10, minutes) were titrated prior to ICAM-2, treatment as indicated and plotted for MFI±SD. C) ICAM-2, induced p44/42, MAPK activity is blocked by β2, and αL, integrin antibodies as determined by a p44/42 MAPK kinase assay. Conditions for induction and inhibition are as described above. Recombinant active p44/42, MAPK served as an internal positive control (denoted by “+”). D) Inhibition and activation profile for intracellular phospho-p44/42, by flow cytometry in the presences of chemical agents (10, μM), EDTA (1, mM), or PMA, ionomycin and ICAM-2, stimulus (as indicated above). MFI values±SD are plotted.
(§1) Intracellular and extracellular staining was performed as described (Perez and Nolan, 2002). Intracellular probes for active kinases were made by conjugating phospho-specific antibodies to the ALEXA FLUOR® dye series as described and used in phospho-protein optimized conditions (Perez and Nolan, 2002). Kinetic analyses was performed by direct application of fixation buffer in time synchronized 96-wells maintained at 37° C. Intracellular actin and microtubule staining was performed using phalloidin-Alexa633 and taxol-Alexa546 dyes (Molecular Probes). Adhesion and clustering assays were performed using ICAM-2-FITC as described in text. LFA-1 activation was assessed by either mAb24-Alexa633 or mAb24-Alexa546 conjugate, surface stained at 37° C. Flow cytometry data are representative of 3 independent experiments of 10^6 cells/sample. 10-50,000 events were collected and manually calibrated on a FACSCalibur™ machine. Data plotted in bar graph format is expressed as geometric mean fluorescence intensity (MFI) and normalized for isotype controls. Log ratios are defined as the MFI of stimulus to the MFI of unstimulated cells. Data was analyzed using Flowjo™ software (Treestar).

NIH3T3 = experiment: staurosporine induced apoptosis in ICAM-2 transduced NIH3T3 (annexin-V binding, BrdU TUNEL); type: cell-based, murine; conditions: for effect on ICAM-2 anti-apoptotic effect, other kinase inhibitors: cell type not stated, data not shown
Protocol: A) Pharmacological inhibitors of PI3K abrogate ICAM-2's anti-apoptotic. ICAM-2, or vector transduced BaF3, cells were treated with staurosporine (1, μM) with (unfilled) or without (filled) the addition of 100, nM wortmannin for 24, hours (left bar graph). Apoptosis was determined by nuclear staining and fluorescence microscopy (left bar graph) and by annexin-V binding assay (right bar graph). The proportion of apoptotic cells in each culture without staurosporine was 8%+/−2. The percentage of apoptotic cells is expressed as the mean (bar)+SD of triplicate cultures. ICAM-2, 1CAM2-AC, or vector transduced NIH3T3, were treated with staurosporine ([…]) in the presence or absence of 10, μM LY294002, for 24, hours (right bar graph). DMSO vehicle served as negative control. The percentage of apoptotic cells is expressed as the mean (bar)+/−SD of triplicate cultures. B) Confocal images of PI3K and AKT localization in ICAM-2, (top) or vector control cells (bottom). C) Confocal images of ezrin and the p85, subunit of PI3K (green) localization in ICAM-2, (top) or vector control cells (bottom).
A) The anti-apoptotic effect of ICAM-2, is both wortmannin and LY294002, sensitive. ICAM-2, or vector transduced BaF3, cells were treated with staurosporine (1, μM) with (unfilled) or without (filled) the addition of 100, nM wortmannin for 24 hours. Apoptosis was determined by nuclear staining and fluorescence microscopy (left bar graph) and by annexin-V binding assay (right bar graph). The proportion of apoptotic cells in each culture without staurosporine was 8%±2. The percentage of apoptotic cells is expressed as the mean (bar)±SD of triplicate cultures. ICAM-2, ICAM2-ΔC, or vector transduced NIH3T3, were treated with staurosporine (1, μM) in the presence or absence of 10, μM LY294002, for 24, hours. DMSO vehicle served as negative control. The percentage of apoptotic cells is expressed as the mean (bar)±SD of triplicate cultures. B) ICAM-2, expressing NIH3T3, cells are sensitive to apoptosis in the presence of PI3K inhibitor LY294002. BrdU TUNEL assay was performed in staurosporine (1, μM) or LY294002, (10, μM) treated ICAM-2, ICAM2-ΔC, and control vector transduced NIH3T3, cells. The percentage of apoptotic cells is expressed as the mean (bar)±SD of triplicate cultures.
Apoptosis was determined either by counting pyknotic nuclei, annexin-V binding by flow cytometry, or TUNEL BrdU staining by flow cytometry as indicated. Apoptosis was induced either by staurosporine (1 μm), treatment with anti-mouse Fas (5 μq/ml Santa Cruz Biotechnology (SCB), […] Fas (5 μg/ml Jo2 Biomed) or anti-human Fas (10 ng/ml CH11 Kamiya Biomedical) as indicated in appropriate experiment, IL-3 withdrawal-(24 hrs) or as indicated. For pyknolic nuclei count, NIH3T3 cells were grown on glass coverslips and assayed for apoptosis. Suspension cells were analyzed by nuclear staining with 25 μM acridine orange/25 μm ethidium bromide or 5 μg/ml Hoechst 33342 (Molecular Probes, Eugene, Oreg.). Apoptosis was identified by the presence of characteristic pyknotic nuclei as described (Jacobson and Raff, 1995). At least 5 individual fields were photographed and counted using a Zeiss axioscope fluorescence microscope. For the survival assay 10^6 NIH3T3 cells were plated in 10 cm dishes and incubated overnight at 37° C. The cells were treated with 1 μM staurosporine for 24 hours. The cells were washed and cultured for 24 hours in complete medium. The cells were trypsinized and viable cells counted following trypan blue staining. Untreated cells were counted at the time of treatment. % survival represents (number of viable cells post-treatment)/(number of viable cells pretreatment). FACS based annexin-V-FITC/PI staining was done as described (PharMingen). TUNEL assay was performed as described by manufacturer of Apoptosis BrdU kit (Promega). […]

LFA-1 [1] = experiment: LFA-1 activation by mAb24-Alexa633 staining, flow cytometry; type: cell-based, human; conditions: Jurkat cells; agents 10 μM 30 min, PMA 1 μg/ml, prior to ICAM-2 10 μg/ml 30 min
Protocol: A) Confocal microscopy of actin and microtubule architecture upon ICAM-2, stimulus (10, μg/ml, 30, min) in Jurkat cells. Actin was stained by phalloidin-alexa633, and tubulin by taxol-alexa546. Inserts display enlarged cell image of representative treatment B) Flow cytometric staining for actin and microtubules as described above. C) Left: Fluorescence topography analysis of ICAM-2-FITC (1 μg/ml, time as indicated) surface distribution. Intensity color gradient depicts high and low fluorescent intensity values. Right: Confocal microscopy of ICAM-2-FITC surface binding (10 μg/ml, 30, min) and anti-β2-alexa568, (clone CTB104). D) Staining for ICAM-2-FITC surface binding (fluorescence intensity) and surface distribution (fluorescence pulse) in cytochalisin D treated Jurkat cells at 37° C. and 4° C. by flow cytometry. E) Values for ICAM-2-FITC fluorescence intensity per time-of-flight per cell as described in text. F) Flow cytometric staining for LFA-1 activation by mAb24-alexa633. Stimuli as indicated (10, μM, 30, min), PMA (1, μg/ml) prior to ICAM-2, stimulation (10, μg/ml, 30, min). Staining was performed at 37° C. G) Mean fluorescence intensity (MFI) values of mAb24-633, and ICAM-2, cluster values, computed as described above, as a function of time.
as §1

Pyk2 = experiment: sICAM-2 induced Pyk2 phosphorylation (phospho-tyrosine based ELISA, chemical genetic approach); type: cell-based; conditions: phospho-tyrosine based ELISA
Text: E) depicts that LFA-1, induced phosphorylation of Pyk2, and Syk is dependent on PKC. We screened for the inhibition of sICAM-2, induced Pyk2, and Syk phosphorylation by chemical inhibitors to tyrosine kinases using a phospho-tyrosine based ELISA. Pyk2, phosphorylation was abrogated in the presence of PKC inhibitors bisindolymaleimide II (BIM II) and staurosporine (STP), in addition to tyrphostin A9, a specific Pyk2, inhibitor. a Pyk2, phosphorylation was also affected by inhibitors of phospholipase Cg (neomycin), inhibitors of Syk (piceatannol), and PKC inhibitor BIM I. Syk phosphorylation was completely abolished by inhibition of Pyk2, PLCg1, and strongly affected by PKC inhibitors. Thus, both Pyk2, and Syk phosphorylations were dependent on PKC activity, while Syk phosphorylation was additionally dependent on PLCg1, and Pyk2, activity. It was not possible to assess specific PKC isozymes by this method.
A chemical genetic approach was undertaken to determine the hierarchy of PKC, Pyk2, PLCg1, and Syk activities in response to sICAM-2, stimulus by verifying phosphorylation status of each kinase in the presence of respective chemical inhibitors. Inhibition of PKC with BIM II abrogated phosphorylation of Pyk2, PLCg1, and Syk. Inhibition of PLCg1, by neomycin abrogated phosphorylation of Syk, with no inhibition observed for Pyk2. […] Thus, the upstream signaling events from LFA-1, to Raf-1, appear to involve PKC/Pyk2/PLCg1/Syk. […] We are currently pursuing these complexes in a separate study.

LFA-1 [2] = molecular target: LFA-1 (Homo sapiens, UniProt P20701); conditions: cited from earlier work
LFA-1 (Homo sapiens, UniProt P20701), sequence (P20701 26-1170): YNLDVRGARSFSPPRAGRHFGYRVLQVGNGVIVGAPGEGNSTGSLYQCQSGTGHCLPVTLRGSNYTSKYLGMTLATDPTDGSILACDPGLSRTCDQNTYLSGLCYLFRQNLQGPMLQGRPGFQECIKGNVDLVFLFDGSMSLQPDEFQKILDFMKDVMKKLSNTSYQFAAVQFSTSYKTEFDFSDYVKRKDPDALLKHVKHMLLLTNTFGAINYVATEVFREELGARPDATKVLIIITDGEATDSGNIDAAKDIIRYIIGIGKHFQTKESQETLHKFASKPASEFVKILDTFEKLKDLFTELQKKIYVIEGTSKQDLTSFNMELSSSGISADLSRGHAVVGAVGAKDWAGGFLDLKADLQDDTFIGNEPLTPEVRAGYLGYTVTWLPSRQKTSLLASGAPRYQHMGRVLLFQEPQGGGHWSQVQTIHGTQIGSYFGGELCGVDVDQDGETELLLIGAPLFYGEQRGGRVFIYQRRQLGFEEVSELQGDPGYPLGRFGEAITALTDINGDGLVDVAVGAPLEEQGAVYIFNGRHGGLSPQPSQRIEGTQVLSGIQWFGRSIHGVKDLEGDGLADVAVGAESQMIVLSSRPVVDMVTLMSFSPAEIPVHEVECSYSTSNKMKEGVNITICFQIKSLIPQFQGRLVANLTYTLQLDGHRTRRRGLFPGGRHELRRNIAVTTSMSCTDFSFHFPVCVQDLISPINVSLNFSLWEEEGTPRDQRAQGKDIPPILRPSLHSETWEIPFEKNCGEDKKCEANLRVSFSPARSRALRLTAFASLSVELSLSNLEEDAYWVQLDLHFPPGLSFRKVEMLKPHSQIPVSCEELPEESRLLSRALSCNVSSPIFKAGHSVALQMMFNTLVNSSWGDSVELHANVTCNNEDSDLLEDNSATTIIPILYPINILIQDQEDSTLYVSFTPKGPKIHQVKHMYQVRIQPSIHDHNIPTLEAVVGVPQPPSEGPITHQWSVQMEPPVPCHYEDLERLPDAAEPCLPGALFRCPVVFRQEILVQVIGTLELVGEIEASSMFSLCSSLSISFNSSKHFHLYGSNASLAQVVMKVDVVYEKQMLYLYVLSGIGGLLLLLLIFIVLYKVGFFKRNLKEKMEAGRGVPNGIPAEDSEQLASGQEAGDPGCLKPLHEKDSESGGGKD
LFA-1 (Homo sapiens, UniProt P20701), sequence (P05107 23-769 partner): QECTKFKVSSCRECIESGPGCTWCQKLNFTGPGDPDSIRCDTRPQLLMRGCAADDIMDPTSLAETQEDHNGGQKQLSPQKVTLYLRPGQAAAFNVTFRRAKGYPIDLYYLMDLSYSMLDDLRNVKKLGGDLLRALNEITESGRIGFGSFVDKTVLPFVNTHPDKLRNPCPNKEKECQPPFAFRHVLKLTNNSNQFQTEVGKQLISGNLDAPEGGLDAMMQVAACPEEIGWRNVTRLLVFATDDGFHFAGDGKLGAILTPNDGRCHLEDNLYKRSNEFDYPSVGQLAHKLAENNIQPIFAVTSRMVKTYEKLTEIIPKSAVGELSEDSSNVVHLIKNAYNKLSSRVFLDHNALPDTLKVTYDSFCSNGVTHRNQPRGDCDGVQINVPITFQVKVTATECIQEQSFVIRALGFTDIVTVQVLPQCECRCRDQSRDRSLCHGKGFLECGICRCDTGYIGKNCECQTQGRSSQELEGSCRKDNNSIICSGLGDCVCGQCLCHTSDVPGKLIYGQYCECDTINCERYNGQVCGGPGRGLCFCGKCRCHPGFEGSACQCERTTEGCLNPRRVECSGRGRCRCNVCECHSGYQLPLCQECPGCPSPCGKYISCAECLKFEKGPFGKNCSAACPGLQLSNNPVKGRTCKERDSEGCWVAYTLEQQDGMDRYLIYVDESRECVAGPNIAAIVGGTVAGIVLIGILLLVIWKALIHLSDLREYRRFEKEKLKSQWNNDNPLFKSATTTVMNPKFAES

Compound	effect on ICAM-2 induced p44/42 MAPK phosphorylation (p44/42 MAPK)	effect on ICAM-2 anti-apoptotic effect, other kinase inhibitors (NIH3T3)	LFA-1 activation (mAb24 binding) (LFA-1 [1])	further results
O=C(O)CN(CCN(CC(=O)O)CC(=O)O)CC(=O)O [EDTA]	diminished			
Cc1cc(O)c2c(c1)C(=O)c1cc(O)cc(O)c1C2=O [Emodin]	no effect			
O=S(=O)(NCCNC/C=C/c1ccc(Br)cc1)c1cccc2cnccc12 [H-89]		not abrogated		
CCCCCCCCCCCCCC(=O)O[C@@H]1[C@@H](C)[C@@]2(O)[C@@H](C=C(CO)C[C@]3(O)C(=O)C(C)=C[C@@H]23)[C@@H]2C(C)(C)[C@]12OC(C)=O [PMA, phorbol myristelated acetate]			induction	
C[S+]([O-])c1ccc(-c2nc(-c3ccncc3)c(-c3ccc(F)cc3)[nH]2)cc1 (stereo not drawn) [SB 203580]		not abrogated		
N#CC(=C(/N)Sc1ccccc1N)/C(C#N)=C(\N)Sc1ccccc1N [U0126]		not abrogated		
COC(=O)Nc1nc2cc(C(=O)c3cccs3)ccc2[nH]1 [nocodazole]	diminished		full activation of LFA-1	
CN[C@@H]1C[C@H]2O[C@@](C)([C@@H]1OC)n1c3ccccc3c3c4c(c5c6ccccc6n2c5c31)C(=O)NC4 [staurosporine]				ICAM-2 induced survival signal (NIH3T3; PKC isozyme inhibitors, system not specified): did not abrogate; sICAM-2 induced Pyk2 phosphorylation (Pyk2): abrogated
CC(=O)O[C@H]1C(=O)[C@@]2(C)[C@H]([C@H](OC(=O)c3ccccc3)[C@]3(O)C[C@H](OC(=O)[C@H](O)[C@@H](NC(=O)c4ccccc4)c4ccccc4)C(C)=C1C3(C)C)[C@]1(OC(C)=O)CO[C@@H]1C[C@@H]2O [taxol]	diminished		full activation of LFA-1	
P1: synthesized peptide of ICAM-2's first Ig domain (P1, amino acids 21-42) (GSDEKVFEVHVRPKKLAVEPKG; UniProt P13598 21-42, looked up, fragment)				concentration inducing LFA-1 mediated adhesion (LFA-1 [2]; bulk cellular adhesion assay): 62 µM; calcium influx (LFA-1 [2]): did not induce calcium influx; induction of the active conformation of LFA-1 (LFA-1 [2]): did not induce the active conformation of LFA-1
